From paper PMC8729770, “In Vitro Evaluation of Antimicrobial Peptides from the Black Soldier Fly (Hermetia Illucens) against a Selection of Human Pathogens” (Microbiology Spectrum, 2022)
Read-outs that look alike come from different tables or passages of the source. Ends that are not written are not given here.

Legend:
P. aeruginosa ATCC 9027 [1] = assay: Cytoplasmic membrane depolarization assay, diSC3(5); type: cell-based, Pseudomonas aeruginosa; settings: 32-0.25 μM
Protocol: To study the effects of the peptides on the membrane potential, 3,3′-dipropylthiadicarbocyanine iodide (diSC3(5); TCI) was used as described by Kwon et al. ([82]). P. aeruginosa ATCC 9027 was grown until the mid-log phase in MHB. Afterwards, the cells were centrifuged (3,000 × g, 15 min), washed and resuspended in 5 mM HEPES buffer (pH 7.4) supplemented with 20 mM glucose and 100 mM KCl to an OD600 of 0.2. […] The fluorescent signal was measured at λexcitation = 620 nm and λemission = 670 with a microplate reader (Promega) every 5 min during 1 h. Furthermore, 0.1% Triton-X was used as a positive control. Data were normalized based on the fluorescent signal in the presence of 50 μL supplemented HEPES buffer and 150 μL diSC3(5)-bacterial suspension. The assay was carried out in triplicate.

P. aeruginosa ATCC 9027 [2] = assay: Inner membrane permeabilization, propidium iodide uptake assay; type: cell-based, Pseudomonas aeruginosa; settings: 32 μM versus polymyxin B 16 μM
Protocol: To investigate the IM damage induced by the selected AMPs, a PI (Sigma-Aldrich) uptake assay was performed, adapted from […] et al. ([80]). P. aeruginosa ATCC 9027 was grown until the mid-log phase in MHB. The bacteria were centrifuged (3,000 × g, 15 min) and resuspended in 5 mM HEPES (Sigma-Aldrich) buffer (pH 7.4) to an OD600 of 0.5. […] Fluorescence was measured every 5 min during 1 h using a microplate reader (Promega) at λexcitation = 530 nm and λemission = 620. Data were normalized based on the fluorescent signal in the presence of 50 μL HEPES buffer and 150 μL PI bacterial suspension. The assay was carried out in triplicate.

B. cenocepacia LMG 16656 = settings: for IC50: read-out: IC50 B. cenocepacia LMG 16656, starting at 32 μM, 10^5 CFU/mL, 48 h, 37°C, resazurin; for MIC B. cenocepacia LMG 16656: visual
P. aeruginosa ATCC 9027 [3] = assay: Time-to-kill analysis; type: cell-based, Pseudomonas aeruginosa
Protocol: To investigate the bactericidal kinetics of the selected AMPs, a time-to-kill analysis was performed as described previously by Mascio et al. ([78]). Briefly, peptide serial dilutions were prepared in 96-well plates (10 μL) and mixed with 190 μL of a P. aeruginosa ATCC 9027 culture of an optical density measured at a wavelength of 600 nm (OD600) of 0.1. Plates were incubated at 37°C and at selected time points (0 h, 0.5 h, 1 h, 2 h, 4 h, and 5 h), aliquots were removed and serially diluted in PBS. The dilutions were plated on TSA and incubated overnight at 37°C. Afterwards, bacterial viability was assessed by performing a standard plate count. Bactericidal activity was defined as a ≥3-log reduction compared with the untreated bacterial control. To avoid carry-over effect of the peptides, the undiluted sample was not plated, leading to a quantification limit of 10^3 CFU/mL ([78]). Bacterial counts were calculated for each AMP concentration at each time point using the average plate count. Afterwards, log10 reductions of the bacterial counts were calculated using the following formula: log10 reduction = log10 (viable microorganisms without AMP treatment/viable microorganisms with AMP treatment). Next, the average log10 reductions and the standard deviations of five independent experiments were calculated and visualized using GraphPad Prism 8.

RWYKKIFKPVEKAVQRVRDGTLQALGVAQQAANVYATAQGAQQQRHA-NH2 [Hill-Cec10]
cytoplasmic membrane depolarization (diSC3(5) fluorescence) (P. aeruginosa ATCC 9027 [1]): cause cytoplasmic membrane depolarization
PI uptake (inner membrane permeabilization) (P. aeruginosa ATCC 9027 [2]): exceeds that of a high dose of polymyxin B
IC50 (B. cenocepacia LMG 16656; repeat 1): > 32 µM
IC50 (B. cenocepacia LMG 16656; repeat 2): > 32 µM
MIC B. cenocepacia LMG 16656 (B. cenocepacia LMG 16656; repeat 1): >32 µM
MIC B. cenocepacia LMG 16656 (B. cenocepacia LMG 16656; repeat 2): >32 µM
log10 reduction of P. aeruginosa (P. aeruginosa ATCC 9027 [3]; 8 μM (8 × MIC Hill-Cec1, 4 × MIC Hill-Cec10), after 5 h, mean ± SD of five experiments): 2.44 ± 0.46 log10
log10 reduction of P. aeruginosa (P. aeruginosa ATCC 9027 [3]; 16 μM (8 × MIC), after 5 h, mean ± SD of five experiments): 4.60 ± 0.94 log10
log10 reduction of P. aeruginosa (P. aeruginosa ATCC 9027 [3]; 16 μM (8 × MIC), always (all experiments)): ≥ 3 log10
concentration needed to maintain bactericidal activity (P. aeruginosa ATCC 9027 [3]; time-to-kill, ≥3-log10 reduction vs growth control): ≥ 16 µM
